Tests used:
lipogenesis [1] = assay: glucose stimulated lipogenesis stimulation; assay type: cell-based; details: FIG. 3
Description: (§1) Methods for obtaining A-type and P-type mediators are set out in Caro et al, 1997, and in WO98/11116 and WO98/11117. Protocols for determining characteristic IPG biological activities such as PDH activation, PKA inhibition, acetylCoA activation, fructose-1,6-bis-phosphatase activity and lipogenesis are well known in the art, e.g. as described in Caro et al^[14].
(§2) The compounds of the invention can be tested for one or more the characteristic IPG-P and/or IPG-A activities mentioned above to determine whether they will be suitable for use a IPG mimetics or antagonists. Preferred assays measure the effect of the compounds on PDH phosphatase, PKA or lipogenesis. Protocols for these assays are provided in Caro et al^[14].

lipogenesis [2] = assay: basal lipogenesis stimulation; assay type: cell-based; details: FIG. 2
Description: as §1, §2

PKA = PKA inhibition; assay type: biochemical
Description: as §1, §2

PDH phosphatase = PDH phosphatase activation; assay type: biochemical; details: 100 μM
Description: as §1, §2

| Structure (SMILES) | effect on glucose stimulated lipogenesis (lipogenesis [1]) | effect on basal lipogenesis (lipogenesis [2]) | PKA inhibition (PKA; 0.1 μM) [%] | PKA inhibition (PKA; 10 μM) [%] | PDH activation (PDH phosphatase) [%] |
| --- | --- | --- | --- | --- | --- |
| NC1C(OC2C(O)C(O)C(O)C(O)C2O)OC(CO)C(O)C1OP(=O)(O)O [RGL1029, O-(2′-amino-2′-deoxy-3′-phosphate-D-glucopyranosyl)-α(1,6)-D-myo-inositol] | stimulate lipogenesis | stimulate lipogenesis | 59 | 33 | 361 |
| N[C@H]1[C@@H](O[C@H]2[C@H](O)[C@H](O)[C@H](O)[C@@H](O)[C@@H]2O)O[C@H](COP(=O)(O)O)[C@@H](O)[C@@H]1O [RGL1023, O-(2′-amino-2′-deoxy-6′-phosphate-D-glucopyranosyl)-α(1,6)-D-myo-inositol] | stimulate lipogenesis | stimulate lipogenesis | – | – | 14 |
| NC1C(OC2C(O)C(O)C(O)C(O)C2OP(=O)(O)O)OC(CO)C(O)C1O [RGL1115, 1′-D-6-O-(2′-amino-2′-deoxy-α-D-glucanopyranosyl)-5-O-phosphate-myo-inositol] | – | – | – | – | 18 |
| NC1C(OC2C(O)C(O)C(O)C(O)C2O)OC(CO)C(OP(=O)(O)O)C1O [RGL1027, O-(2′-amino-2′-deoxy-4′-phosphate-D-glucopyranosyl)-α(1,6)-D-myo-inositol] | inhibits lipogenesis | inhibits lipogenesis | 18 | 10 | 132 |

Source: patent publication US6759390B2, “Compounds and their uses” (priority 2000, dated 2004)
